Test results reported in ChEMBL document CHEMBL1133389, “Antihypertensive activity of substituted 2,3,8,8a-tetrahydro-7H-oxazolo[3,2-a]pyridinedicarboxylate enantiomers” (Bioorg Med Chem Lett, 2000).
The source made the active and inactive calls. No cut-off for these calls is given here.

Experiments:
Type in all cases: functional, organism-based
Design in all cases: dose 50 mg/kg
Rattus norvegicus [1] = experiment: Tested for antihypertensive activity at the dose of 50 mg/kg in spontaneously hypertensive rats; active
Rattus norvegicus [2] = experiment: Tested for relative acute toxicity at the dose of 50 mg/kg after intraperitoneal administration in spontaneously hypertensive rats; inactive
Rattus norvegicus [3] = experiment: Tested for antihypertensive activity at the dose of 50 mg/kg in spontaneously hypertensive rats; inactive
Rattus norvegicus [4] = experiment: Tested for reflex tachycardia at the dose of 50 mg/kg when administered intraperitoneally in spontaneously hypertensive rats; active
Rattus norvegicus [5] = experiment: Tested for relative acute toxicity at the dose of 50 mg/kg after intraperitoneal administration in spontaneously hypertensive rats; active

## CCOC(=O)[C@H]1[C@H](c2cccc([N+](=O)[O-])c2)C(C(=O)OC)=C(C)N2C[C@H](C)O[C@@]12C
Rattus norvegicus [1]
  Activity: Active

## COC(=O)C1=C(C)N2C[C@H](C)O[C@@]2(C)[C@@H](C(=O)OC)[C@@H]1c1cccc(Cl)c1
Rattus norvegicus [2]
  Activity: inactive

## CCOC(=O)[C@@H]1[C@@H](c2cccc([N+](=O)[O-])c2)C(C(=O)OC)=C(C)N2C[C@@H](C)O[C@]12C
Rattus norvegicus [3]
  Activity: inactive

## CCOC(=O)[C@H]1[C@H](c2cccc([N+](=O)[O-])c2)C(C(=O)OC)=C(C)N2CCO[C@@]12C
Rattus norvegicus [1]
  Activity: Active

## COC(=O)C1=C(C)NC(C)=C(C(=O)OC)C1c1ccccc1[N+](=O)[O-]
Rattus norvegicus [4]
  Activity: Active

## COC(=O)C1=C(C)N2C[C@@H](C)O[C@]2(C)[C@H](C(=O)OC)[C@H]1c1cccc(Cl)c1
Rattus norvegicus [5]
  Activity: Active
